The test system of experiment [1] is capillary circulation of the skin. The experiment can be described thus: Laser Doppler circulation in five human subjects (Example 8). In kind it is in vivo. Particulars: positive control formulation containing 0.1% methyl nicotinate. The text has this: This example illustrates delivery of nitric oxide formulations to five human subjects, using procedures and formulations similar to those discussed in Example 5. Each person served as their own control for the testing. A Moor Instruments Laser Doppler was used to determine circulation. […] The formulations used produce positive, almost immediate results when applied to the skin which, in these studies, was manifested by vasodilatation of the cutaneous vascular system.
For each subject, the following creams were applied: a negative control formulation (containing no NO), 0.010 gram of a 10,000 ppm NO formulation, 0.020 gram of a 10,000 ppm NO formulation, and a positive control formulation containing 0.1% methyl nicotinate. The formulations were prepared using procedures similar to those discussed in Example 1.

Experiment [2] has as its system micro-capillary blood flow to skin. As to the kind of experiment: Laser Doppler capillary blood flow in humans, 10,000 ppm NO in closed chamber (Example 5). It is filed as in vivo, human. Particulars: applied to the skin at 1/10% in alcohol. The source says:
The formulation used in these studies contained nitric oxide dispersed in a lipid matrix. […] Nitric oxide is a very rapid acting molecule, and these studies used a system that employed laser Doppler with a covered chamber. The formulation was placed into the chamber and then attached to the skin by an adhesive layer on the covering. This provided a stable measuring device as determined by multiple normal evaluations of the capillary blood flow without treatment of nitric oxide.
A known positive control, methyl nicotinate, was applied to the skin at a concentration of 1/10% in alcohol. […] The vascular dynamics are such that when the blood vessels dilate physical parameters follow Bernoulli's law. This states that as one increases the diameter of a tube containing a liquid to flow will increase but the pressure and the speed of the liquid will decrease. The laser Doppler device accurately measured these parameters.
The test product was labeled as 10,000 ppm NO (nitric oxide). The study participants had 100 mg of the test product applied in a closed Hilltop chamber on the forearm. […]
A Moor Instruments DRT4 Laser Doppler Blood Flow Monitor (Devon, England) was used in these studies. The laser Doppler technique measured blood flow in the microcapillaries of the skin that are close to the skin surface and the blood flow in underlying arterioles and venules that help to regulate skin temperature. […]

SMILES strings stand for the structures.

We go through 1 compound from patent US10188603B2, “Topical systems and methods for treating sexual dysfunction” (priority 2013, dated 2019).

Turning to `COC(=O)c1cccnc1` [methyl nicotinate], the “vasodilatation (laser Doppler)” value in experiment [1] was “vasodilatation was observed”. In addition, the “laser Doppler response of positive control” value in experiment [2] is on record as “rapid response typical of the vasodilator”.
